The text below walks through data of US20200054651A1, “COMPOSITIONS AND METHODS FOR MODULATING PPP2R1A” (The Regents of the University of California, priority 2017, published 2020).

The structures appear in SMILES notation.

One assay concerns 231MFP tumor xenograft. Nature of the assay: 231MFP tumor xenograft growth. It is filed as in vivo, immune-deficient SCID mice. Conditions: 50 mg/kg ip, daily, initiated 15 days after tumor xenograft injection.
For a further assay, the system named is MCF7 cells. The assay can be described thus: MCF7 serum-free cell survival. In kind it is cell-based. Conditions: 10 μM, 48 h.
In the next assay the test system is HCC38 cells. The assay can be described thus: HCC38 serum-free cell survival. In kind it is cell-based. Conditions: 10 μM, 48 h.

`O=C(CCl)N(Cc1ccccc1)c1ccc2c(c1)OCCO2` [JNS 1-40, N-benzyl-2-chloro-N-(2,3-dihydrobenzo[b][1,4]dioxin-6-yl)acetamide]: the “231MFP tumor xenograft growth” value in the assay on 231MFP tumor xenograft is given as “significantly attenuated tumor growth”.
In the case of `CC1=C(CO)C(=O)O[C@@H]([C@@H](C)[C@H]2CC[C@H]3[C@@H]4C[C@H]5O[C@]56[C@@H](O)C=CC(=O)[C@]6(C)[C@H]4CC[C@]23C)C1` [withaferin A, reference compound], the serum-free cell survival result in the assay with MCF7 cells and in the assay with HCC38 cells was “impairs” in each case.
